Assay results from ChEMBL document CHEMBL3351560, “Pyrazolone-quinazolone hybrids: a novel class of human 4-hydroxyphenylpyruvate dioxygenase inhibitors” (Bioorg Med Chem, 2014).

Target: T1, 4-hydroxyphenylpyruvate dioxygenase (Homo sapiens, UniProt P32754)
Experiment: Inhibition of purified His6-tagged recombinant human HPPD assessed as inhibition of maleylacetoacetate formation after 30 mins by UV/visible spectrophotometry
Target sequence in this assay (P32754 whole entry): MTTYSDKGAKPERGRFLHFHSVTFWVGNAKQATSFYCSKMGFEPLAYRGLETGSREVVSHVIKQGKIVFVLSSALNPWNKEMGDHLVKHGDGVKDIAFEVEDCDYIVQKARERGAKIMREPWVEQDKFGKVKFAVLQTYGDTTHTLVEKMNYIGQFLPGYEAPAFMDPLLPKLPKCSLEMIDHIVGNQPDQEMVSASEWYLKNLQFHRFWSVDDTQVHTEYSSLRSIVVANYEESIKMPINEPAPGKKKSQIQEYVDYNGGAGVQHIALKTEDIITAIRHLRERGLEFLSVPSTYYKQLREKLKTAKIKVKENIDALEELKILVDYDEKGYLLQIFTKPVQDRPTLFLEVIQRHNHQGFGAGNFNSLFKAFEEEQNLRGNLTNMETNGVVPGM

**Q.** For `Cc1ccc(-n2c(C)nc3ccc(C(=O)c4cnn(C)c4O)cc3c2=O)cc1`, which Ki is on record?
**A.** 25 nM

**Q.** For `Cc1nn(C)c(O)c1C(=O)c1ccc2nc(C)n(-c3cccc(Br)c3)c(=O)c2c1`, which Ki is on record?
**A.** 93 nM

**Q.** `Cc1ccccc1-n1c(C)nc2ccc(C(=O)c3c(C)nn(C)c3O)cc2c1=O` was tested. Which Ki did it give?
**A.** 248 nM

**Q.** How did the Ki turn out when `Cc1ccc(-n2c(C)nc3ccc(C(=O)c4c(C)nn(C)c4O)cc3c2=O)c(F)c1` was run?
**A.** 81 nM

**Q.** Which Ki does the source give for `Cc1nc2ccc(C(=O)c3cnn(C)c3O)cc2c(=O)n1-c1ccc(Cl)cc1` here?
**A.** 22 nM

**Q.** With `Cc1nc2ccc(C(=O)c3cnn(C)c3O)cc2c(=O)n1-c1ccccc1` as the compound, how does the Ki read?
**A.** 19 nM

**Q.** `Cc1nn(C)c(O)c1C(=O)c1ccc2nc(C)n(-c3ccccc3Cl)c(=O)c2c1` was tested. Which Ki did it give?
**A.** 86 nM

**Q.** `Cc1nc2ccc(C(=O)c3cnn(C)c3O)cc2c(=O)n1-c1ccc(F)cc1` was tested. Which Ki did it give?
**A.** 34 nM

**Q.** With `Cc1nc2ccc(C(=O)c3cnn(C)c3O)cc2c(=O)n1-c1ccc(Br)cc1` as the compound, how does the Ki read?
**A.** 18 nM

**Q.** How did the Ki turn out when `Cc1nc2ccc(C(=O)c3cnn(C)c3O)cc2c(=O)n1-c1ccccc1F` was run?
**A.** 15 nM

**Q.** How did the Ki turn out when `Cc1nc2ccc(C(=O)c3cnn(C)c3O)cc2c(=O)n1-c1cccc(F)c1` was run?
**A.** 20 nM

**Q.** `Cc1nc2ccc(C(=O)c3cnn(C)c3O)cc2c(=O)n1-c1ccc(OC(F)(F)F)cc1` was tested. Which Ki did it give?
**A.** 160 nM

**Q.** `Cc1nc2ccc(C(=O)c3cnn(C)c3O)cc2c(=O)n1-c1ccccc1Cl` was tested. Which Ki did it give?
**A.** 22 nM

**Q.** For `Cc1cc(Cl)ccc1-n1c(C)nc2ccc(C(=O)c3c(C)nn(C)c3O)cc2c1=O`, which Ki is on record?
**A.** 177 nM

**Q.** `Cc1nn(C)c(O)c1C(=O)c1ccc2nc(C)n(-c3cccc(Cl)c3)c(=O)c2c1` was tested. Which Ki did it give?
**A.** 173 nM

**Q.** For `Cc1cc(F)ccc1-n1c(C)nc2ccc(C(=O)c3cnn(C)c3O)cc2c1=O`, which Ki is on record?
**A.** 40 nM

**Q.** With `Cc1ccc(-n2c(C)nc3ccc(C(=O)c4c(C)nn(C)c4O)cc3c2=O)c(Cl)c1` as the compound, how does the Ki read?
**A.** 109 nM

**Q.** With `Cc1nc2ccc(C(=O)c3cnn(C)c3O)cc2c(=O)n1-c1ccccc1Br` as the compound, how does the Ki read?
**A.** 24 nM

**Q.** With `Cc1cc(F)ccc1-n1c(C)nc2ccc(C(=O)c3c(C)nn(C)c3O)cc2c1=O` as the compound, how does the Ki read?
**A.** 219 nM

**Q.** For `COc1ccccc1-n1c(C)nc2ccc(C(=O)c3cnn(C)c3O)cc2c1=O`, which Ki is on record?
**A.** 38 nM

**Q.** With `Cc1nc2ccc(C(=O)c3cnn(C)c3O)cc2c(=O)n1-c1cccc(Cl)c1` as the compound, how does the Ki read?
**A.** 10 nM

**Q.** For `COc1cccc(-n2c(C)nc3ccc(C(=O)c4cnn(C)c4O)cc3c2=O)c1`, which Ki is on record?
**A.** 34 nM

**Q.** How did the Ki turn out when `Cc1cccc(-n2c(C)nc3ccc(C(=O)c4cnn(C)c4O)cc3c2=O)c1` was run?
**A.** 13 nM

**Q.** For `Cc1ccccc1-n1c(C)nc2ccc(C(=O)c3cnn(C)c3O)cc2c1=O`, which Ki is on record?
**A.** 58 nM

**Q.** Which Ki does the source give for `Cc1nc2ccc(C(=O)c3cnn(C)c3O)cc2c(=O)n1-c1ccc(Cl)c(Cl)c1` here?
**A.** 25 nM

**Q.** With `COc1ccccc1-n1c(C)nc2ccc(C(=O)c3c(C)nn(C)c3O)cc2c1=O` as the compound, how does the Ki read?
**A.** 207 nM

**Q.** `Cc1ccc(-n2c(C)nc3ccc(C(=O)c4cnn(C)c4O)cc3c2=O)c(F)c1` was tested. Which Ki did it give?
**A.** 170 nM

**Q.** `Cc1nn(C)c(O)c1C(=O)c1ccc2nc(C)n(-c3ccc(F)cc3)c(=O)c2c1` was tested. Which Ki did it give?
**A.** 247 nM

**Q.** How did the Ki turn out when `Cc1nn(C)c(O)c1C(=O)c1ccc2nc(C)n(-c3cccc(F)c3)c(=O)c2c1` was run?
**A.** 90 nM

**Q.** For `COc1ccc(-n2c(C)nc3ccc(C(=O)c4cnn(C)c4O)cc3c2=O)cc1`, which Ki is on record?
**A.** 60 nM

**Q.** With `Cc1nn(C)c(O)c1C(=O)c1ccc2nc(C)n(-c3ccc(Br)cc3)c(=O)c2c1` as the compound, how does the Ki read?
**A.** 130 nM

**Q.** `Cc1nn(C)c(O)c1C(=O)c1ccc2nc(C)n(-c3ccc(Cl)cc3)c(=O)c2c1` was tested. Which Ki did it give?
**A.** 237 nM

**Q.** Which Ki does the source give for `Cc1ccc(-n2c(C)nc3ccc(C(=O)c4cnn(C)c4O)cc3c2=O)c(C)c1` here?
**A.** 59 nM

**Q.** How did the Ki turn out when `Cc1ccc(-n2c(C)nc3ccc(C(=O)c4cnn(C)c4O)cc3c2=O)c(Br)c1` was run?
**A.** 11 nM

**Q.** For `Cc1nn(C)c(O)c1C(=O)c1ccc2nc(C)n(-c3ccccc3F)c(=O)c2c1`, which Ki is on record?
**A.** 79 nM

**Q.** Which Ki does the source give for `COc1ccc(-n2c(C)nc3ccc(C(=O)c4c(C)nn(C)c4O)cc3c2=O)cc1` here?
**A.** 238 nM

**Q.** With `Cc1nc2ccc(C(=O)c3cnn(C)c3O)cc2c(=O)n1-c1cccc(OC(F)(F)F)c1` as the compound, how does the Ki read?
**A.** 31 nM

**Q.** `Cc1cc(Cl)ccc1-n1c(C)nc2ccc(C(=O)c3cnn(C)c3O)cc2c1=O` was tested. Which Ki did it give?
**A.** 32 nM

**Q.** How did the Ki turn out when `Cc1ccc(-n2c(C)nc3ccc(C(=O)c4c(C)nn(C)c4O)cc3c2=O)cc1` was run?
**A.** 156 nM

**Q.** `Cc1nc2ccc(C(=O)c3cnn(C)c3O)cc2c(=O)n1-c1cccc(Br)c1` was tested. Which Ki did it give?
**A.** 14 nM

**Q.** How did the Ki turn out when `Cc1ccc(-n2c(C)nc3ccc(C(=O)c4cnn(C)c4O)cc3c2=O)c(Cl)c1` was run?
**A.** 90 nM

**Q.** For `Cc1ccc(-n2c(C)nc3ccc(C(=O)c4c(C)nn(C)c4O)cc3c2=O)c(C)c1`, which Ki is on record?
**A.** 161 nM

**Q.** `Cc1ccc(-n2c(C)nc3ccc(C(=O)c4c(C)nn(C)c4O)cc3c2=O)c(Br)c1` was tested. Which Ki did it give?
**A.** 87 nM

**Q.** `Cc1cccc(-n2c(C)nc3ccc(C(=O)c4c(C)nn(C)c4O)cc3c2=O)c1` was tested. Which Ki did it give?
**A.** 74 nM

Target: T1, 4-hydroxyphenylpyruvate dioxygenase
Experiment: Ratio of Nitisinone Ki to compound Ki for purified His6-tagged recombinant human HPPD assessed as inhibition of maleylacetoacetate formation after 30 mins by UV/visible spectrophotometry
Target sequence in this assay (P32754 2-393 limits assumed): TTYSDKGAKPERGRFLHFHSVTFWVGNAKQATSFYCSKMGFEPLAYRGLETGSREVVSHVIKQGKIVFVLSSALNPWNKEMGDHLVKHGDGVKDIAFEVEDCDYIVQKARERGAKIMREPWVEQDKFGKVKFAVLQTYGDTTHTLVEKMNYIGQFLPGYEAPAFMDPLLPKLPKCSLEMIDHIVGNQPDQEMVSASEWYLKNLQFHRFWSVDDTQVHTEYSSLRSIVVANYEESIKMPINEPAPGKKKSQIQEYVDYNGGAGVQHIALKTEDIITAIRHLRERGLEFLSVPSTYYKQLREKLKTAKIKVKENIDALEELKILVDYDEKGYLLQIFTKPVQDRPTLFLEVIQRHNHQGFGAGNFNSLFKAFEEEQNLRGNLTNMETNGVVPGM

**Q.** Which Ratio Ki does the source give for `Cc1nc2ccc(C(=O)c3cnn(C)c3O)cc2c(=O)n1-c1cccc(Cl)c1` here?
**A.** 3

**Q.** `Cc1ccc(-n2c(C)nc3ccc(C(=O)c4cnn(C)c4O)cc3c2=O)c(Br)c1` was tested. Which Ratio Ki did it give?
**A.** 3
